How the values were obtained:
Experiment in all cases: cells
CP66-MEL = format: functional, cell-based, Homo sapiens; conditions: Homo sapiens, CP66-MEL
Description: SANGER: Inhibition of human CP66-MEL cell growth in a cell viability assay.

D-336MG = format: functional, cell-based, Homo sapiens; conditions: Homo sapiens, D-336MG
Description: SANGER: Inhibition of human D-336MG cell growth in a cell viability assay.

DU-145 = format: functional, cell-based, Homo sapiens; conditions: Homo sapiens, DU-145
Description: SANGER: Inhibition of human DU-145 cell growth in a cell viability assay.

Detroit 562 = format: functional, cell-based, Homo sapiens; conditions: Homo sapiens, Detroit 562
EFO-27 = format: functional, cell-based, Homo sapiens; conditions: Homo sapiens, EFO-27
Description: SANGER: Inhibition of human EFO-27 cell growth in a cell viability assay.

ETK-1 = format: functional, cell-based, Homo sapiens; conditions: Homo sapiens, ETK-1
Description: SANGER: Inhibition of human ETK-1 cell growth in a cell viability assay.

EW-3 = format: functional, cell-based; conditions: Homo sapiens
Description: SANGER: Inhibition of human EW-3 cell growth in a cell viability assay.

GCIY = format: functional, cell-based, Homo sapiens; conditions: Homo sapiens, GCIY
Description: SANGER: Inhibition of human GCIY cell growth in a cell viability assay.

HCC1395 = format: functional, cell-based, Homo sapiens; conditions: Homo sapiens, HCC1395
Description: SANGER: Inhibition of human HCC1395 cell growth in a cell viability assay.

HSC-3 = format: functional, cell-based, Homo sapiens; conditions: Homo sapiens, HSC-3
Description: SANGER: Inhibition of human HSC-3 cell growth in a cell viability assay.

HT-1376 = format: functional, cell-based, Homo sapiens; conditions: Homo sapiens, HT-1376
Description: SANGER: Inhibition of human HT-1376 cell growth in a cell viability assay.

HT-3 = format: functional, cell-based, Homo sapiens; conditions: Homo sapiens, HT-3
Description: SANGER: Inhibition of human HT-3 cell growth in a cell viability assay.

HTC-C3 = format: functional, cell-based, Homo sapiens; conditions: Homo sapiens, HTC-C3
Description: SANGER: Inhibition of human HTC-C3 cell growth in a cell viability assay.

Hs-578T = format: functional, cell-based, Homo sapiens; conditions: Homo sapiens, Hs-578T
Description: SANGER: Inhibition of human Hs-578-T cell growth in a cell viability assay.

K562 = format: functional, cell-based; conditions: Homo sapiens
Description: SANGER: Inhibition of human K-562 cell growth in a cell viability assay.

KMOE-2 = format: functional, cell-based; conditions: Homo sapiens
Description: SANGER: Inhibition of human KMOE-2 cell growth in a cell viability assay.

LB831-BLC = format: functional, cell-based, Homo sapiens; conditions: Homo sapiens, LB831-BLC
Description: SANGER: Inhibition of human LB831-BLC cell growth in a cell viability assay.

LU-139 = format: functional, cell-based; conditions: Homo sapiens
Description: SANGER: Inhibition of human LU-139 cell growth in a cell viability assay.

MDA-MB-157 = format: functional, cell-based, Homo sapiens; conditions: Homo sapiens, MDA-MB-157
Description: SANGER: Inhibition of human MDA-MB-157 cell growth in a cell viability assay.

MDA-MB-231 = format: functional, cell-based, Homo sapiens; conditions: Homo sapiens, MDA-MB-231
Description: SANGER: Inhibition of human MDA-MB-231 cell growth in a cell viability assay.

MDA-MB-453 = format: functional, cell-based, Homo sapiens; conditions: Homo sapiens, MDA-MB-453
MKN-1 = format: functional, cell-based, Homo sapiens; conditions: Homo sapiens, MKN-1
Description: SANGER: Inhibition of human MKN1 cell growth in a cell viability assay.

MV4-11 = format: functional, cell-based, MV-4-11; conditions: Homo sapiens
Description: SANGER: Inhibition of human MV-4-11 cell growth in a cell viability assay.

NB69 = format: functional, cell-based, Homo sapiens; conditions: Homo sapiens, NB69
Description: SANGER: Inhibition of human NB69 cell growth in a cell viability assay.

NCI-H1581 = format: functional, cell-based, Homo sapiens; conditions: Homo sapiens, NCI-H1581
Description: SANGER: Inhibition of human NCI-H1581 cell growth in a cell viability assay.

NCI-H1838 = format: functional, cell-based, Homo sapiens; conditions: Homo sapiens, NCI-H1838
Description: SANGER: Inhibition of human NCI-H1838 cell growth in a cell viability assay.

NCI-H441 = format: functional, cell-based; conditions: Homo sapiens
Description: SANGER: Inhibition of human NCI-H441 cell growth in a cell viability assay.

NCI-H596 = format: functional, cell-based, Homo sapiens; conditions: Homo sapiens, NCI-H596
Description: SANGER: Inhibition of human NCI-H596 cell growth in a cell viability assay.

NEC8 = format: functional, cell-based, Homo sapiens; conditions: Homo sapiens, NEC8
Description: SANGER: Inhibition of human NEC8 cell growth in a cell viability assay.

NTERA-2-cl-D1 = format: functional, cell-based, Homo sapiens; conditions: Homo sapiens, NTERA-2-cl-D1
Description: SANGER: Inhibition of human NTERA-S-cl-D1 cell growth in a cell viability assay.

OE19 = format: functional, cell-based, Homo sapiens; conditions: Homo sapiens, OE19
Description: SANGER: Inhibition of human OE19 cell growth in a cell viability assay.

PC-3 = format: functional, cell-based, Homo sapiens; conditions: Homo sapiens, PC-3
Description: SANGER: Inhibition of human PC-3 cell growth in a cell viability assay.

PSN1 = format: functional, cell-based, Homo sapiens; conditions: Homo sapiens, PSN1
Description: SANGER: Inhibition of human PSN1 cell growth in a cell viability assay.

SBC-1 = format: functional, cell-based; conditions: Homo sapiens
Description: SANGER: Inhibition of human SBC-1 cell growth in a cell viability assay.

SCC-15 = format: functional, cell-based, Homo sapiens; conditions: Homo sapiens, SCC-15
Description: SANGER: Inhibition of human SCC-15 cell growth in a cell viability assay.

SCC-9 = format: functional, cell-based, Homo sapiens; conditions: Homo sapiens, SCC-9
Description: SANGER: Inhibition of human SCC-9 cell growth in a cell viability assay.

SK-OV-3 = format: functional, cell-based, Homo sapiens; conditions: Homo sapiens, SK-OV-3
Description: SANGER: Inhibition of human SK-OV-3 cell growth in a cell viability assay.

SW1463 = format: functional, cell-based, Homo sapiens; conditions: Homo sapiens, SW1463
Description: SANGER: Inhibition of human SW1463 cell growth in a cell viability assay.

SW626 = format: functional, cell-based, Homo sapiens; conditions: Homo sapiens, SW626
Description: SANGER: Inhibition of human SW626 cell growth in a cell viability assay.

T98G = format: functional, cell-based, Homo sapiens; conditions: Homo sapiens, T98G
Description: SANGER: Inhibition of human T98G cell growth in a cell viability assay.

A3-KAW = format: functional, cell-based; conditions: Homo sapiens
Description: SANGER: Inhibition of human A3-KAW cell growth in a cell viability assay.

ALL-PO = format: functional, cell-based; conditions: Homo sapiens
Description: SANGER: Inhibition of human ALL-PO cell growth in a cell viability assay.

BE-13 = format: functional, cell-based; conditions: Homo sapiens
Description: SANGER: Inhibition of human BE-13 cell growth in a cell viability assay.

BFTC-905 = format: functional, cell-based, Homo sapiens; conditions: Homo sapiens, BFTC-905
Description: SANGER: Inhibition of human BFTC-905 cell growth in a cell viability assay.

BT-20 = format: functional, cell-based, Homo sapiens; conditions: Homo sapiens, BT-20
Description: SANGER: Inhibition of human BT-20 cell growth in a cell viability assay.

C-33-A = format: functional, cell-based, Homo sapiens; conditions: Homo sapiens, C-33-A
Description: SANGER: Inhibition of human C-33-A cell growth in a cell viability assay.

CAL-72 = format: functional, cell-based, Homo sapiens; conditions: Homo sapiens, CAL-72
Description: SANGER: Inhibition of human CAL-72 cell growth in a cell viability assay.

CAL-85-1 = format: functional, cell-based; conditions: Homo sapiens
U-251 = format: functional, cell-based, Homo sapiens; conditions: Homo sapiens, U-251
Description: SANGER: Inhibition of human U251 cell growth in a cell viability assay.

UACC-62 = format: functional, cell-based, Homo sapiens; conditions: Homo sapiens, UACC-62
Description: SANGER: Inhibition of human UACC-62 cell growth in a cell viability assay.

HCC2157 = format: functional, cell-based; conditions: Homo sapiens
Description: SANGER: Inhibition of human HCC2157 cell growth in a cell viability assay.

A253 cell line = format: functional, cell-based, Homo sapiens; conditions: Homo sapiens, A253
Description: SANGER: Inhibition of human A253 cell growth in a cell viability assay.

## CN(C)C/C=C/C(=O)Nc1cc2c(Nc3ccc(F)c(Cl)c3)ncnc2cc1O[C@H]1CCOC1 [AFATINIB]
CP66-MEL
  IC50: > 500 nM
D-336MG
  IC50: > 500 nM
DU-145
  IC50: 448 nM
Detroit 562
  IC50: > 500 nM
EFO-27
  IC50: 51.8 nM
ETK-1
  IC50: > 500 nM
EW-3
  IC50: > 500 nM
GCIY
  IC50: > 500 nM
HCC1395
  IC50: > 500 nM
HSC-3
  IC50: 212 nM
HT-1376
  IC50: > 500 nM
HT-3
  IC50: > 500 nM
HTC-C3
  IC50: > 500 nM
Hs-578T
  IC50: > 500 nM
K562
  IC50: > 500 nM
KMOE-2
  IC50: > 500 nM
LB831-BLC
  IC50: > 500 nM
LU-139
  IC50: 305 nM
MDA-MB-157
  IC50: > 500 nM
MDA-MB-231
  IC50: > 500 nM
MDA-MB-453
  IC50: > 500 nM
MKN-1
  IC50: > 500 nM
MV4-11
  IC50: > 500 nM
NB69
  IC50: > 500 nM
NCI-H1581
  IC50: > 500 nM
NCI-H1838
  IC50: > 500 nM
NCI-H441
  IC50: > 500 nM
NCI-H596
  IC50: > 500 nM
NEC8
  IC50: > 500 nM
NTERA-2-cl-D1
  IC50: > 500 nM
OE19
  IC50: > 500 nM
PC-3
  IC50: > 500 nM
PSN1
  IC50: > 500 nM
SBC-1
  IC50: 190 nM
SCC-15
  IC50: > 500 nM
SCC-9
  IC50: > 500 nM
SK-OV-3
  IC50: > 500 nM
SW1463
  IC50: > 500 nM
SW626
  IC50: > 500 nM
T98G
  IC50: > 500 nM
A3-KAW
  IC50: > 500 nM
ALL-PO
  IC50: > 500 nM
BE-13
  IC50: > 500 nM
BFTC-905
  IC50: > 500 nM
BT-20
  IC50: > 500 nM
C-33-A
  IC50: > 500 nM
CAL-72
  IC50: > 500 nM
CAL-85-1
  IC50: > 500 nM
U-251
  IC50: > 500 nM
UACC-62
  IC50: > 500 nM

## Cn1cc(C2=C(c3ccc(Cl)cc3Cl)C(=O)NC2=O)c2ccccc21 [SB-216763]
CP66-MEL
  IC50: > 10000 nM
D-336MG
  IC50: > 10000 nM
DU-145
  IC50: > 10000 nM
Detroit 562
  IC50: > 10000 nM
EFO-27
  IC50: > 10000 nM
ETK-1
  IC50: > 10000 nM
GCIY
  IC50: > 10000 nM
HCC1395
  IC50: > 10000 nM
HSC-3
  IC50: > 10000 nM
HT-1376
  IC50: > 10000 nM
HT-3
  IC50: > 10000 nM
HTC-C3
  IC50: > 10000 nM
Hs-578T
  IC50: > 10000 nM
K562
  IC50: > 10000 nM
KMOE-2
  IC50: > 10000 nM
LB831-BLC
  IC50: > 10000 nM
LU-139
  IC50: > 10000 nM
MDA-MB-157
  IC50: > 10000 nM
MDA-MB-231
  IC50: > 10000 nM
MDA-MB-453
  IC50: > 10000 nM
MKN-1
  IC50: > 10000 nM
MV4-11
  IC50: 2700 nM
NB69
  IC50: > 10000 nM
NCI-H1581
  IC50: > 10000 nM
NCI-H1838
  IC50: > 10000 nM
NCI-H441
  IC50: > 10000 nM
NCI-H596
  IC50: > 10000 nM
NTERA-2-cl-D1
  IC50: > 10000 nM
OE19
  IC50: > 10000 nM
PC-3
  IC50: > 10000 nM
PSN1
  IC50: > 10000 nM
SBC-1
  IC50: > 10000 nM
SCC-15
  IC50: > 10000 nM
SCC-9
  IC50: > 10000 nM
SK-OV-3
  IC50: 9100 nM
SW1463
  IC50: > 10000 nM
SW626
  IC50: > 10000 nM
T98G
  IC50: > 10000 nM
A3-KAW
  IC50: > 10000 nM
ALL-PO
  IC50: > 10000 nM
BE-13
  IC50: > 10000 nM
BFTC-905
  IC50: > 10000 nM
BT-20
  IC50: > 10000 nM
C-33-A
  IC50: > 10000 nM
CAL-72
  IC50: > 10000 nM
CAL-85-1
  IC50: > 10000 nM
U-251
  IC50: > 10000 nM
UACC-62
  IC50: > 10000 nM

## C=CCNC1=C2C[C@@H](C)C[C@H](OC)[C@H](O)[C@@H](C)/C=C(\C)[C@H](OC(N)=O)[C@@H](OC)/C=C\C=C(/C)C(=O)NC(=CC1=O)C2=O [TANESPIMYCIN]
CP66-MEL
  IC50: 610 nM
D-336MG
  IC50: 33.1 nM
DU-145
  IC50: > 1000 nM
Detroit 562
  IC50: 42.4 nM
EFO-27
  IC50: 100 nM
ETK-1
  IC50: 159 nM
EW-3
  IC50: 127 nM
GCIY
  IC50: 918 nM
HCC1395
  IC50: > 1000 nM
HCC2157
  IC50: 388 nM
HSC-3
  IC50: 9.29 nM
HT-1376
  IC50: 169 nM
HT-3
  IC50: 482 nM
HTC-C3
  IC50: 265 nM
Hs-578T
  IC50: 72.1 nM
K562
  IC50: > 1000 nM
LB831-BLC
  IC50: 139 nM
LU-139
  IC50: > 1000 nM
MDA-MB-157
  IC50: 181 nM
MDA-MB-231
  IC50: > 1000 nM
MDA-MB-453
  IC50: 672 nM
MKN-1
  IC50: 588 nM
MV4-11
  IC50: 68 nM
NB69
  IC50: 271 nM
NCI-H1581
  IC50: 103 nM
NCI-H1838
  IC50: > 1000 nM
NCI-H441
  IC50: > 1000 nM
NCI-H596
  IC50: > 1000 nM
NEC8
  IC50: > 1000 nM
NTERA-2-cl-D1
  IC50: 328 nM
OE19
  IC50: 30.8 nM
PC-3
  IC50: 515 nM
PSN1
  IC50: 46 nM
SBC-1
  IC50: 267 nM
SCC-15
  IC50: > 1000 nM
SCC-9
  IC50: 167 nM
SK-OV-3
  IC50: 176 nM
SW1463
  IC50: > 1000 nM
SW626
  IC50: 335 nM
T98G
  IC50: 41 nM
A253 cell line
  IC50: > 1000 nM
A3-KAW
  IC50: 342 nM
ALL-PO
  IC50: > 1000 nM
BE-13
  IC50: > 1000 nM
BFTC-905
  IC50: 315 nM
BT-20
  IC50: > 1000 nM
C-33-A
  IC50: > 1000 nM
CAL-72
  IC50: > 1000 nM
CAL-85-1
  IC50: > 1000 nM
U-251
  IC50: 105 nM
UACC-62
  IC50: 322 nM

Reference: ChEMBL document CHEMBL1201861, “Genomics of Drug Sensitity in Cancer screening data, Wellcome Trust Sanger Institute”
